Source: a compilation of properties of binary mixtures (doi:10.1016/j.molliq.2022.121069)

Test: xn = mol fraction of the nth substance listed
Settings: 101.3 kPa

CCCC[N+](CCCC)(CCCC)CCCC.[Cl-] + CNCCO
Settings	speed of sound, x1 = 0.091 [m/s]	speed of sound, x1 = 0.111 [m/s]	speed of sound, x1 = 0.1441 [m/s]	viscosity, x1 = 0.091 [mPa·s]	viscosity, x1 = 0.111 [mPa·s]	viscosity, x1 = 0.1441 [mPa·s]
293.15 K	–	1516.6	1521.4	–	34.4	47.4
298.15 K	–	–	1505.8	–	–	34.3
303.15 K	1482	1485.3	–	18.5	20.8	–
308.15 K	1466.3	1469.8	–	15.1	16.8	–
313.15 K	1450.5	1454.2	–	12.7	14.1	–
318.15 K	–	1438.9	1443.8	–	11.6	14.1
323.15 K	1419.5	1423.6	1428.6	8.93	9.5	11.8
328.15 K	1404.1	–	1413.5	7.38	–	10.3
333.15 K	1388.5	1393.1	1398.5	6.48	6.5	9.58

CC[N+](CC)(CC)CC.[Cl-] + CNCCO
Settings	speed of sound, x1 = 0.0914 [m/s]	speed of sound, x1 = 0.1114 [m/s]	speed of sound, x1 = 0.1413 [m/s]	viscosity, x1 = 0.0914 [mPa·s]	viscosity, x1 = 0.1114 [mPa·s]	viscosity, x1 = 0.1413 [mPa·s]
293.15 K	1553.4	1565.5	–	20.5	21.9	–
298.15 K	1538	1550.1	1565.6	16.7	17.4	18.8
303.15 K	1522.5	–	1550.1	13.5	–	15.2
308.15 K	–	1519.5	1534.7	–	11.5	12.4
313.15 K	1491.9	1504.6	–	9.57	10	–
318.15 K	1476.9	1489.4	–	7.92	8.35	–
323.15 K	1461.5	–	–	6.5	–	–
328.15 K	–	1458.8	1473.8	–	5.78	6.23
333.15 K	1431	1444.6	1458.7	4.57	4.95	5.41
